From US20050112573A1, “Method of detecting toxic substance” (priority 2001, published 2005)

Tested on: yeast genes (level of expressed mRNA)
Assay: DNA chip analysis of expressed mRNA of yeast genes after 2 h culture with a toxic chemical substance
Format: cell-based, Saccharomyces cerevisiae S288C
Conditions: for The level of expressed mRNA in the presence of chemical substance/ in its absence, gene YDL078C: yeast gene YDL078C; for The level of expressed mRNA in the presence of chemical substance/ (ratio to absence of chemical substance): stress protein genes, DNA chip
Procedure: Yeast (Saccharomyces cerevtisiae S288C (α SUC2mal mel gap2 CUP1)) were cultured at 25° C. on YPD medium (yeast extract 1%, polypepton 2%, glucose 2%). One of toxic chemical substances was added to the cell at logarithmic growth phase, and the cell was further cultured for two hours. Cell was cultured without any chemical substance in the same condition, and was used as control. Concentrations of the chemical substances were defined to inhibit the growth of the yeast but not lead to death.
After the completion of cultivation, the culture was centrifuged to collect the cells. To the cells, sodium acetate buffer (50 mM sodium acetate, 10 mM EDTA, 1% SDS) was added, and the mixture was shaken at 65° C. for five minutes, followed by returning to room temperature, and obtaining the supernatant, which procedure was repeated two times. To the supernatant, ½ amount of a solution of phenol/chloroform was added, and the mixture was centrifuged to give a supernatant, which was added with an equal amount of chloroform, and the mixture was centrifuged to give a supernatant. To the supernatant, an equal amount of isopropanol containing 0.3 M sodium acetate was added, and the mixture was allowed to stand at room temperature for 30 minutes, after which the mixture was centrifuged to give a sediment of the whole RNAs. Seventy % ethanol was added to the sediment, and the mixture was again centrifuged to give a sediment, which was then dried and dissolved in water. mRNA was isolated from the whole RNAs as followings. In view of the fact that a poly A chain is attached to the 3′ terminus of mRNA, a polynucleotide having a poly T structure which was immobilized on the surface of latex beads was used to trap the mRNA, and then the mRNA was washed and eluted with spine column (Oligotex-dT30<Super>mRNA Purification Kit, Takara). Reverse transcription of the mRNA was conducted with a reverse transcriptase (Super Script II Reverse Transcriptase; catalogue No. 18064-014, GibcoBRL) using fluorescence-labeled nucleotides to give cDNAs that were introduced with Cy3-dUTP or Cy5-dUTP during the reverse transcription.
The labeled cDNAs were dissolved in TE buffer (10 mM Tris-HCl/1 mM EDTA, pH8.0), and the solution was dropped on the DNA chip containing the whole genes of yeast (DNA Chip Research Inc. Japan) so that the cDNAs were hybridized on the DNA chip at 65° C. for over 12 hours. The fluoresces intensity of the DNA chip was read with a scanner, and the ratio relative to the fluorescence intensity resulting from the absence of chemical substance was estimated as the following, which is shown in Tables 1 to 9: [formula]
In the Tables, “Intensity” indicated in the rightmost column is a value of the level of expressed mRNA of each gene in control cells as divided by the average level of the expressions of the whole genes.

With `S=C([S-])NCCNC(=S)[S-].[Zn+2]` [(11), zinc N,N′-ethylenebis(dithiocarbamate)] the “The level of expressed mRNA in the presence of chemical substance/ in its absence, gene YDL078C” value (energy system protein genes, 2 h culture with the chemical, ratio to control without chemical) was 1.7, the “The level of expressed mRNA in the presence of chemical substance/ in its absence, gene YDL078C” value (ratio of DNA chip fluorescence intensity to that without chemical substance) was 1.7 and the “The level of expressed mRNA in the presence of chemical substance/ (in its absence), gene YDL215C” value (yeast gene YDL215C, ratio of DNA chip fluorescence intensity to that without chemical substance) was 0.8. The “The level of expressed mRNA in the presence of chemical substance/The level of expressed mRNA in the absence of chemical substance” value (yeast gene YDL238C) was 1.1, the “The level of expressed mRNA in the presence of chemical substance/The level of expressed mRNA in the absence of chemical substance” value (yeast gene YDR055W) was 2.2 and the “The level of expressed mRNA in the presence of chemical substance/ (in its absence), gene YDR073W” value (yeast gene YDR073W, ratio of DNA chip fluorescence intensity to that without chemical substance) was 1.0. For the same compound, the “The level of expressed mRNA in the presence of chemical substance/ in its absence, gene YDR079W” value (yeast gene YDR079W, energy system protein genes, 2 h culture with the chemical, ratio to control without chemical) was 1.3, the “The level of expressed mRNA in the presence of chemical substance/ (ratio to absence), gene YDR079W” value (yeast gene YDR079W, mitochondria-located protein genes, 2 h culture with chemical) was 1.3 and the “The level of expressed mRNA in the presence of chemical substance/The level of expressed mRNA in the absence of chemical substance” value (yeast gene YDR084C) was 0.7. For the same compound, the “The level of expressed mRNA in the presence of chemical substance/The level of expressed mRNA in the absence of chemical substance” value (yeast gene YDR085C) was 1.7, the “The level of expressed mRNA in the presence of chemical substance/The level of expressed mRNA in the absence of chemical substance” value (yeast gene YDR104C) was 1.0 and the “The level of expressed mRNA in the presence of chemical substance/The level of expressed mRNA in the absence of chemical substance” value (yeast gene YDR115W) was 1.2. The “The level of expressed mRNA in the presence of chemical substance/The level of expressed mRNA in the absence of chemical substance” value (yeast gene YDR259C) was 1.2, the “The level of expressed mRNA in the presence of chemical substance/ (in its absence), gene YDR297W” value (yeast gene YDR297W, ratio of DNA chip fluorescence intensity to that without chemical substance) was 1.4 and the “The level of expressed mRNA in the presence of chemical substance/The level of expressed mRNA in the absence of chemical substance” value (yeast gene YDR315C) was 1.1. The “The level of expressed mRNA in the presence of chemical substance/The level of expressed mRNA in the absence of chemical substance” value (yeast gene YDR358W) was 1.0, the “The level of expressed mRNA in the presence of chemical substance/ (ratio to absence), gene YDR377W” value (yeast gene YDR377W, mitochondria-located protein genes, 2 h culture with chemical) was 1.4 and the “The level of expressed mRNA in the presence of chemical substance/ (in its absence), gene YDR387C” value (yeast gene YDR387C, ratio of DNA chip fluorescence intensity to that without chemical substance) was 2.0. The “The level of expressed mRNA in the presence of chemical substance/The level of expressed mRNA in the absence of chemical substance” value (yeast gene YDR388W) was 1.6, the “The level of expressed mRNA in the presence of chemical substance/The level of expressed mRNA in the absence of chemical substance” value (yeast gene YDR432W) was 0.6 and the “The level of expressed mRNA in the presence of chemical substance/The level of expressed mRNA in the absence of chemical substance” value (yeast gene YDR481C) was 1.2. For the same compound, the “The level of expressed mRNA in the presence of chemical substance/The level of expressed mRNA in the absence of chemical substance” value (yeast gene YDR510W) was 1.6, the “The level of expressed mRNA in the presence of chemical substance/ (ratio to absence of chemical substance)” value (yeast gene YEL039C) was 1.7 and the “The level of expressed mRNA in the presence of chemical substance/The level of expressed mRNA in the absence of chemical substance” value (yeast gene YEL042W) was 1.6. The “The level of expressed mRNA in the presence of chemical substance/The level of expressed mRNA in the absence of chemical substance” value (yeast gene YEL066W) was 1.9, the “The level of expressed mRNA in the presence of chemical substance/ (in its absence), gene YER015W” value (yeast gene YER015W, ratio of DNA chip fluorescence intensity to that without chemical substance) was 1.0 and the “The level of expressed mRNA in the presence of chemical substance/The level of expressed mRNA in the absence of chemical substance” value (yeast gene YER039C) was 1.2. For the same compound, the “The level of expressed mRNA in the presence of chemical substance/ (ratio to absence of chemical substance)” value (yeast gene YER057C) was 1.8, the “The level of expressed mRNA in the presence of chemical substance/The level of expressed mRNA in the absence of chemical substance” value (yeast gene YER107C) was 0.7 and the “The level of expressed mRNA in the presence of chemical substance/The level of expressed mRNA in the absence of chemical substance” value (yeast gene YER130C) was 0.9. The “The level of expressed mRNA in the presence of chemical substance/The level of expressed mRNA in the absence of chemical substance” value (yeast gene YFL028C) was 1.3, the “The level of expressed mRNA in the presence of chemical substance/The level of expressed mRNA in the absence of chemical substance” value (yeast gene YFL043C) was 1.1 and the “The level of expressed mRNA in the presence of chemical substance/ (in its absence), gene YGL035C” value (yeast gene YGL035C, ratio of DNA chip fluorescence intensity to that without chemical substance) was 1.3. For the same compound, the “The level of expressed mRNA in the presence of chemical substance/ (in its absence), gene YGL115W” value (yeast gene YGL115W, ratio of DNA chip fluorescence intensity to that without chemical substance) was 1.0, the “The level of expressed mRNA in the presence of chemical substance/ (ratio to absence of chemical substance)” value (yeast gene YGL115W) was 1.0 and the “The level of expressed mRNA in the presence of chemical substance/The level of expressed mRNA in the absence of chemical substance” value (yeast gene YGL158W) was 0.2. The “The level of expressed mRNA in the presence of chemical substance/ (ratio to absence), gene YGL187C” value (yeast gene YGL187C, mitochondria-located protein genes, 2 h culture with chemical) was 0.7, the “The level of expressed mRNA in the presence of chemical substance/ (in its absence), gene YGL205W” value (yeast gene YGL205W, ratio of DNA chip fluorescence intensity to that without chemical substance) was 0.4 and the “The level of expressed mRNA in the presence of chemical substance/The level of expressed mRNA in the absence of chemical substance” value (yeast gene YGL229C) was 1.1. For the same compound, the “The level of expressed mRNA in the presence of chemical substance/ in its absence, gene YGR062C” value (yeast gene YGR062C, energy system protein genes, 2 h culture with the chemical, ratio to control without chemical) was 1.6, the “The level of expressed mRNA in the presence of chemical substance/ (ratio to absence), gene YGR062C” value (yeast gene YGR062C, mitochondria-located protein genes, 2 h culture with chemical) was 1.6 and the “The level of expressed mRNA in the presence of chemical substance/ (in its absence), gene YGR096W” value (yeast gene YGR096W, ratio of DNA chip fluorescence intensity to that without chemical substance) was 0.8. The “The level of expressed mRNA in the presence of chemical substance/The level of expressed mRNA in the absence of chemical substance” value (yeast gene YGR136W) was 1.3, the “The level of expressed mRNA in the presence of chemical substance/The level of expressed mRNA in the absence of chemical substance” value (yeast gene YGR189C) was 1.5 and the “The level of expressed mRNA in the presence of chemical substance/The level of expressed mRNA in the absence of chemical substance” value (yeast gene YGR213C) was 1.6. For the same compound, the “The level of expressed mRNA in the presence of chemical substance/The level of expressed mRNA in the absence of chemical substance” value (yeast gene YGR257C) was 1.2, the “The level of expressed mRNA in the presence of chemical substance/ (in its absence), gene YGR287C” value (yeast gene YGR287C, ratio of DNA chip fluorescence intensity to that without chemical substance) was 1.5 and the “The level of expressed mRNA in the presence of chemical substance/ (in its absence), gene YGR288W” value (yeast gene YGR288W, ratio of DNA chip fluorescence intensity to that without chemical substance) was 1.3. The “The level of expressed mRNA in the presence of chemical substance/ (ratio to absence of chemical substance)” value (yeast gene YHL028W) was 0.7, the “The level of expressed mRNA in the presence of chemical substance/ (ratio to absence of chemical substance)” value (yeast gene YHL046C) was 0.4 and the “The level of expressed mRNA in the presence of chemical substance/The level of expressed mRNA in the absence of chemical substance” value (yeast gene YHR004C) was 0.8. The “The level of expressed mRNA in the presence of chemical substance/The level of expressed mRNA in the absence of chemical substance” value (yeast gene YHR071W) was 1.8, the “The level of expressed mRNA in the presence of chemical substance/The level of expressed mRNA in the absence of chemical substance” value (yeast gene YHR139C) was 3.5 and the “The level of expressed mRNA in the presence of chemical substance/The level of expressed mRNA in the absence of chemical substance” value (yeast gene YHR142W) was 1.1. The “The level of expressed mRNA in the presence of chemical substance/ (in its absence), gene YHR210C” value (yeast gene YHR210C, ratio of DNA chip fluorescence intensity to that without chemical substance) was 1.5, the “The level of expressed mRNA in the presence of chemical substance/ (in its absence), gene YIL006W” value (yeast gene YIL006W, ratio of DNA chip fluorescence intensity to that without chemical substance) was 1.0 and the “The level of expressed mRNA in the presence of chemical substance/ (ratio to absence of chemical substance)” value (yeast gene YIL011W) was 2.5.
